Experimental findings from patent publication US8974801B2, “Long term sustained release pharmaceutical composition containing aqueous suspension of bisphosphonate” (priority 2006, dated 2015) are described below.

For the data set the following is noted: female, Sprague-Dawley, rat, in vivo.

For `NCCCC(O)(P(=O)(O)O)P(=O)(O)O` [Alendronate Calcium, alendronate calcium], the “Total Net Bone Absorbed” value amounted to 770.
